Several values for one entry are separate records, joined by “and”; a condition that tells them apart may be missing. Equal entries are not always repeated.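 How tested: cells in 96-well plates exposed to compound for 48 hours at five concentrations. GI50 is the concentration that inhibits growth by half. TGI: concentration producing complete growth inhibition.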
Tests used:
Experiment in all cases: inhibition of tumour cell growth, NCI panel, 48 h
[1] = system: SNB-75 CNS
[2] = system: SK-MEL-5 melanoma
[3] = system: OVCAR-5 ovarian
[4] = system: A498 renal
[5] = system: MDA-MB-435
[6] = system: U251 CNS
[7] = system: UO-31 renal
[8] = system: SW-620 colon
[9] = system: RXF 393 renal
[10] = system: T-47D breast

Molecule `COc1cc(C2C3=C(COC3=O)Nc3c2ccc2c3CCCC2)cc2c1OCO2` (configuration not stated) has a GI50 [1] of 0.0251 µM, a TGI [1] of 14.5 µM and a GI50 [2] of 0.0381 µM. It also gave a TGI [2] of 0.199 µM, a GI50 [3] of 0.0897 µM and a TGI [3] greater than 100 µM. For the same molecule, the GI50 [4] was 0.0265 µM, the TGI [4] was 0.175 µM and the GI50 [5] was 0.0199 µM. For the same molecule, the TGI [5] was 0.0497 µM, the GI50 [6] was 0.0418 µM and the TGI [6] was 14.9 µM. It also gave a GI50 [7] of 0.337 µM, a TGI [7] greater than 100 µM and a GI50 [8] of 0.0399 µM. The TGI [8] was greater than 100 µM.

Work on `CC12CO[C@@](C)(CC(S(=O)(=O)c3ccccc3)C1)O2` (some centres not stated) yielded a TGI [1] greater than 100 µM, a TGI [2] greater than 100 µM and a TGI [3] greater than 100 µM. The TGI [9] was greater than 100 µM, the TGI [6] was greater than 100 µM and the TGI [7] was greater than 100 µM. For the same molecule, the TGI [8] was greater than 100 µM.

`COC(=O)C1C=NNC1C(=O)OC` (configuration not stated) gave a TGI [1] greater than 100 µM, a TGI [2] greater than 100 µM and a TGI [3] greater than 100 µM. The TGI [4] was greater than 100 µM, the TGI [9] was greater than 100 µM and the TGI [6] was greater than 100 µM. The TGI [7] was greater than 100 µM and the TGI [8] was greater than 100 µM.

In the case of `CC(/C=C/c1ccccc1)=N\NC(N)=S`, the TGI [2] is reported as greater than 100 µM, the TGI [3] is reported as greater than 100 µM and the TGI [4] is reported as 44.5 µM. The TGI [10] was 49.1 µM, the TGI [5] was 84.4 µM and the TGI [6] was greater than 100 µM. It also gave a TGI [7] greater than 100 µM and a TGI [8] greater than 100 µM.

Molecule `O=C1Nc2ccccc2/C1=C\c1nc(C2CCN(S(=O)(=O)c3ccc(F)cc3)CC2)n2ccccc12` has a GI50 [3] of 5.16 µM, a TGI [3] greater than 100 µM and a GI50 [4] of 17.1 µM. For the same molecule, the TGI [4] was greater than 100 µM, the GI50 [10] was 4.57 µM and the TGI [10] was greater than 100 µM. It also gave a GI50 [6] of 2.53 µM, a TGI [6] of 11.4 µM and a GI50 [8] of 85.7 µM. The TGI [8] was greater than 100 µM.

`Oc1ccc(CCNCc2cc3c(cc2Br)OCO3)cc1` gave a TGI [1] of 84.8 µM, a TGI [2] greater than 100 µM and a TGI [3] greater than 100 µM. The TGI [4] was greater than 100 µM, the TGI [10] was greater than 100 µM and the TGI [9] was greater than 100 µM. It also gave a TGI [6] greater than 100 µM, a TGI [7] greater than 100 µM and a TGI [8] greater than 100 µM.

Molecule `C=CC1(NS(=O)(=O)c2ccc(C)cc2)CCC(C(C)(C)C)CC1` (configuration not stated) has a TGI [1] of 54.1 µM, a TGI [2] greater than 100 µM and a TGI [4] greater than 100 µM. It also gave a TGI [9] of 54.8 µM, a TGI [6] greater than 100 µM and a TGI [7] greater than 100 µM. For the same molecule, the TGI [8] was greater than 100 µM.

In the case of `CCCNC(=O)c1ccc(Cl)cc1Cl`, the GI50 [1] is reported as greater than 100 µM, the TGI [1] is reported as greater than 100 µM and the GI50 [2] is reported as greater than 100 µM. The TGI [2] was greater than 100 µM, the GI50 [3] was greater than 100 µM and the TGI [3] was greater than 100 µM. For the same molecule, the GI50 [10] was greater than 100 µM, the TGI [10] was greater than 100 µM and the GI50 [9] was greater than 100 µM. It also gave a TGI [9] greater than 100 µM, a GI50 [5] greater than 100 µM and a TGI [5] greater than 100 µM. For the same molecule, the GI50 [6] was greater than 100 µM, the TGI [6] was greater than 100 µM and the GI50 [7] was greater than 100 µM. For the same molecule, the TGI [7] was greater than 100 µM, the GI50 [8] was greater than 100 µM and the TGI [8] was greater than 100 µM.

With `OCCNCCCOc1ccc2ncnc(Nc3ccc(Oc4cccc(C(F)(F)F)c4)c(Cl)c3)c2c1` the GI50 [1] was 1.48 µM, the TGI [1] was 2.86 µM and the GI50 [3] was 1.65 µM. The TGI [3] was 3.24 µM, the GI50 [4] was 1.72 µM and the TGI [4] was 5.29 µM. The GI50 [5] was 1.72 µM, the TGI [5] was 3.21 µM and the GI50 [7] was 1.29 µM. It also gave a TGI [7] of 2.57 µM, a GI50 [8] of 1.76 µM and a TGI [8] of 3.38 µM.

`O=C(CC1(O)C(=O)Nc2ccccc21)c1ccc(O)cc1` (configuration not stated) gave a TGI [1] greater than 100 µM, a TGI [2] greater than 100 µM and a TGI [3] greater than 100 µM. For the same molecule, the TGI [4] was greater than 100 µM, the TGI [9] was greater than 100 µM and the TGI [6] was greater than 100 µM. It also gave a TGI [7] greater than 100 µM and a TGI [8] greater than 100 µM.

Molecule `Cc1cccc(N2C(=O)C(=O)C(c3nc4ccccc4s3)/C(=N/NC(=S)NN)C2=O)c1C` (configuration not stated) has a TGI [1] greater than 100 µM, a TGI [2] greater than 100 µM and a TGI [3] greater than 100 µM. The TGI [4] was greater than 100 µM, the TGI [9] was greater than 100 µM and the TGI [6] was greater than 100 µM. It also gave a TGI [7] greater than 100 µM and a TGI [8] greater than 100 µM.

`CC(CNCCCNCCNCCCNCO)[N+](=O)[O-]` (configuration not stated) was tested, and the TGI [1] was 35.3 µM, the TGI [2] was 29.9 µM and the TGI [3] was 26.8 µM. The TGI [4] was 32.3 µM, the TGI [9] was 29.2 µM and the TGI [6] was 29.5 µM. It also gave a TGI [7] of 32.3 µM and a TGI [8] of 12.2 µM.

For `CCN(CC)C(=O)N1CCN(C=S)CC1`, the TGI [1] was greater than 100 µM, the TGI [2] was greater than 100 µM and the TGI [3] was greater than 100 µM. It also gave a TGI [4] greater than 100 µM, a TGI [9] greater than 100 µM and a TGI [6] greater than 100 µM. The TGI [7] was greater than 100 µM and the TGI [8] was greater than 100 µM.

Work on `O=[N+]([O-])c1cc(Cl)ccc1OCc1ccccc1` yielded a TGI [1] of 90.8 µM, a TGI [2] of 70.5 µM and a TGI [4] greater than 100 µM. It also gave a TGI [9] greater than 100 µM, a TGI [6] greater than 100 µM and a TGI [8] greater than 100 µM.

In the case of `CC1C[C@]2(C[C@@H](C)C(=O)O2)O[C@@H]2CC3(C)[C@@H]4CCC5C(C)(C)OC(=O)C[C@H]6OO[C@]4(CC[C@]3(C)C12)CC56O` (some centres not stated), the TGI [1] is reported as greater than 100 µM, the TGI [2] is reported as greater than 100 µM and the TGI [3] is reported as greater than 100 µM. It also gave a TGI [9] greater than 100 µM, a TGI [6] greater than 100 µM and a TGI [7] greater than 100 µM. It also gave a TGI [8] greater than 100 µM.

`CC1=C(C(=O)Nc2ccc([N+](=O)[O-])cc2)C(c2ccc3c(c2)OCO3)C(C(=O)Nc2ccc([N+](=O)[O-])cc2)=C(C)N1` was tested, and the TGI [1] was 45.7 µM, the TGI [3] was greater than 100 µM and the TGI [4] was 69.1 µM. The TGI [9] was greater than 100 µM, the TGI [6] was greater than 100 µM and the TGI [7] was greater than 100 µM. It also gave a TGI [8] greater than 100 µM.

In the case of `C[n+]1c(-c2ccc(/C=N/NC(=O)c3ccc(C(=O)N/N=C/c4ccc(-c5cn6ccccc6[n+]5C)cc4)cc3)cc2)cn2ccccc21`, the GI50 [2] is reported as 155 µM, the TGI [2] is reported as > 94.9 µM and 634 µM and the GI50 [3] is reported as greater than 1000 µM. The TGI [3] was greater than 1000 µM, the GI50 [4] was 172 µM and the TGI [4] was 70.8 µM and 309 µM. It also gave a GI50 [10] of 372 µM, a TGI [10] of 928 µM and a GI50 [9] of 174 µM. The TGI [9] was > 87.2 µM and 312 µM, the GI50 [5] was greater than 1000 µM and the TGI [5] was greater than 1000 µM. The GI50 [6] was 197 µM, the TGI [6] was 347 µM and the GI50 [7] was 227 µM. The TGI [7] was > 73.3 µM and 955 µM, the GI50 [8] was greater than 1000 µM and the TGI [8] was greater than 1000 µM.

`C/C=C/[C@H]1O[C@@H]2C(=C[C@H]1O)C(=O)O[C@H]2C` was tested, and the GI50 [1] was 1.23 µM, the TGI [1] was 26.4 µM and the GI50 [2] was 9.89 µM. The TGI [2] was 23.3 µM, the GI50 [3] was 23.2 µM and the TGI [3] was 45.8 µM. For the same molecule, the GI50 [10] was 7.34 µM, the TGI [10] was 25.5 µM and the GI50 [9] was 18.9 µM. It also gave a TGI [9] of 67.7 µM, a GI50 [5] of 21.9 µM and a TGI [5] of 43.5 µM. For the same molecule, the GI50 [6] was 18.4 µM, the TGI [6] was 36.8 µM and the GI50 [7] was 7.51 µM. The TGI [7] was greater than 54.4 µM, the GI50 [8] was 3.19 µM and the TGI [8] was 14.2 µM.

Molecule `CN[C@@H](C)[C@H](N)c1ccccc1` has a TGI [1] greater than 100 µM, a TGI [2] greater than 100 µM and a TGI [4] greater than 100 µM. It also gave a TGI [9] greater than 100 µM, a TGI [6] greater than 100 µM and a TGI [7] greater than 100 µM. It also gave a TGI [8] greater than 100 µM.

For `CC(=O)C1=C(C)N(C)C2(O)C=CC(=O)C3=C(O)c4ccccc4C(=O)C312` (configuration not stated), the GI50 [1] was 19.9 µM, the TGI [1] was 43.8 µM and the GI50 [2] was 2.51 µM. It also gave a TGI [2] of 9.02 µM, a GI50 [3] of 22.1 µM and a TGI [3] of 66.1 µM. The GI50 [4] was 0.0524 µM, the TGI [4] was 15.2 µM and the GI50 [5] was 2.12 µM. The TGI [5] was 3.89 µM, the GI50 [6] was 14 µM and the TGI [6] was 31.4 µM. For the same molecule, the GI50 [7] was 27 µM, the TGI [7] was greater than 100 µM and the GI50 [8] was 4.41 µM. For the same molecule, the TGI [8] was 33.5 µM.

Work on `C=C1C2CC(OC(C)=O)C3(C)C(c4ccoc4)OC(=O)[C@@H](O)[C@]13OC1C[C@H](OC(C)=O)C(C)(C)[C@H](CC(=O)OC)[C@]12C` (some centres not stated) yielded a TGI [1] greater than 100 µM, a TGI [2] greater than 100 µM and a TGI [4] greater than 100 µM. The TGI [6] was greater than 100 µM, the TGI [7] was greater than 100 µM and the TGI [8] was greater than 100 µM.

— PubChem BioAssay (NCI)
